“And” between values parts separate entries of the source, which are not always exact repeats. Equal values may be shown once. Inconclusive results and toxic doses are left out. Rule as the data show it: active = T/C of 150% or more; inactive = T/C below 125%.
Tested on: L1210 leukemia ip in BDF1 mice, survival T/C
Assay: NCI In Vivo Anticancer Drug Screen. Data for tumor model L1210 Leukemia (intraperitoneal) in B6D2F1 (BDF1) mice
Conditions: endpoint: mean survival time, higher = longer survival
In short: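 Read-out is survival time, reported as the treated-group measurement over the vehicle-control measurement.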

Measured: T/C

CC(C)NCC(=O)c1ccc(O)c(O)c1
active: dose: 210.0 mg/kg/injection, schedule: Q01DX009 (ip), vehicle: saline 184 % of control | dose: 288.0 mg/kg/injection, schedule: Q04DX003 (ip), vehicle: saline 154 % of control
inactive: dose: 20.0 mg/kg/injection, schedule: Q01DX Z (ip), vehicle: saline 98 % of control | dose: 20.0 mg/kg/injection, schedule: Q#A X Z (ip), vehicle: methylcellulose (MC) 96 % of control | dose: 25.0 mg/kg/injection, schedule: Q01DX Z (ip), vehicle: carboxymethylcellulose (CMC) 107 % of control | dose: 25.0 mg/kg/injection, schedule: Q03DX Z (ip), vehicle: carboxymethylcellulose (CMC) 93 % of control | dose: 29.0 mg/kg/injection, schedule: Q03HX024 (ip), vehicle: saline 95 % of control | dose: 31.0 mg/kg/injection, schedule: Q01DX Z (ip), vehicle: carboxymethylcellulose (CMC) 106 % of control | dose: 40.0 mg/kg/injection, schedule: Q01DX Z (ip), vehicle: saline 107 % of control and 89 % of control | dose: 43.0 mg/kg/injection, schedule: Q03HX024 (ip), vehicle: saline 104 % of control | dose: 49.0 mg/kg/injection, schedule: Q01DX Z (ip), vehicle: saline 122 % of control | dose: 50.0 mg/kg/injection, schedule: Q01DX001 (ip), vehicle: saline 96 % of control | dose: 50.0 mg/kg/injection, schedule: Q01DX Z (ip), vehicle: carboxymethylcellulose (CMC) 104 % of control | dose: 50.0 mg/kg/injection, schedule: Q03DX Z (ip), vehicle: carboxymethylcellulose (CMC) 93 % of control | dose: 59.0 mg/kg/injection, schedule: Q04DX003 (ip), vehicle: saline 94 % of control | dose: 62.0 mg/kg/injection, schedule: Q01DX Z (ip), vehicle: carboxymethylcellulose (CMC) 119 % of control | dose: 64.0 mg/kg/injection, schedule: Q03HX024 (ip), vehicle: saline 105 % of control | dose: 80.0 mg/kg/injection, schedule: Q01DX Z (ip), vehicle: saline 97 % of control and 119 % of control | dose: 88.0 mg/kg/injection, schedule: Q04DX003 (ip), vehicle: saline 100 % of control | dose: 96.0 mg/kg/injection, schedule: Q03HX024 (ip), vehicle: saline 106 % of control | dose: 100.0 mg/kg/injection, schedule: Q01DX001 (ip), vehicle: saline 107 % of control | dose: 100.0 mg/kg/injection, schedule: Q01DX009 (ip), vehicle: saline 104 % of control | dose: 100.0 mg/kg/injection, schedule: Q01DX Z (ip), vehicle: carboxymethylcellulose (CMC) 115 % of control | dose: 100.0 mg/kg/injection, schedule: Q03DX Z (ip), vehicle: carboxymethylcellulose (CMC) 100 % of control | dose: 100.0 mg/kg/injection, schedule: Q04DX003 (ip), vehicle: saline 103 % of control | dose: 120.0 mg/kg/injection, schedule: Q03DX Z (ip), vehicle: methylcellulose (MC) 102 % of control | dose: 125.0 mg/kg/injection, schedule: Q01DX Z (ip), vehicle: carboxymethylcellulose (CMC) 105 % of control | dose: 131.0 mg/kg/injection, schedule: Q04DX003 (ip), vehicle: saline 98 % of control | dose: 143.0 mg/kg/injection, schedule: Q01DX009 (ip), vehicle: saline 114 % of control | dose: 143.0 mg/kg/injection, schedule: Q03HX024 (ip), vehicle: saline 101 % of control and 118 % of control | dose: 160.0 mg/kg/injection, schedule: Q01DX Z (ip), vehicle: saline 104 % of control and 121 % of control | dose: 196.0 mg/kg/injection, schedule: Q04DX003 (ip), vehicle: saline 104 % of control | dose: 200.0 mg/kg/injection, schedule: Q01DX001 (ip), vehicle: saline 107 % of control | dose: 200.0 mg/kg/injection, schedule: Q01DX009 (ip), vehicle: saline 115 % of control | dose: 200.0 mg/kg/injection, schedule: Q03DX Z (ip), vehicle: carboxymethylcellulose (CMC) 100 % of control | dose: 200.0 mg/kg/injection, schedule: Q04DX003 (ip), vehicle: saline 109 % of control | dose: 210.0 mg/kg/injection, schedule: Q03HX024 (ip), vehicle: saline 116 % of control | dose: 240.0 mg/kg/injection, schedule: Q03DX Z (ip), vehicle: methylcellulose (MC) 113 % of control | dose: 288.0 mg/kg/injection, schedule: Q01DX001 (ip), vehicle: saline 102 % of control | dose: 320.0 mg/kg/injection, schedule: Q01DX009 (ip), vehicle: saline 104 % of control | dose: 320.0 mg/kg/injection, schedule: Q03HX024 (ip), vehicle: saline 111 % of control | dose: 400.0 mg/kg/injection, schedule: Q01DX001 (ip), vehicle: saline 107 % of control | dose: 400.0 mg/kg/injection, schedule: Q01DX009 (ip), vehicle: saline 107 % of control | dose: 400.0 mg/kg/injection, schedule: Q01DX Z (ip), vehicle: carboxymethylcellulose (CMC) 111 % of control | dose: 400.0 mg/kg/injection, schedule: Q03DX Z (ip), vehicle: carboxymethylcellulose (CMC) 114 % of control | dose: 400.0 mg/kg/injection, schedule: Q04DX003 (ip), vehicle: saline 104 % of control | dose: 430.0 mg/kg/injection, schedule: Q04DX003 (ip), vehicle: saline 103 % of control | dose: 478.0 mg/kg/injection, schedule: Q01DX009 (ip), vehicle: saline 116 % of control | dose: 480.0 mg/kg/injection, schedule: Q03DX Z (ip), vehicle: methylcellulose (MC) 102 % of control
